Measured values from US11814367B2, “Inhibitors of glycogen synthase 1 (GYS1) and methods of use thereof” (Maze Therapeutics, Inc., priority 2021, dated 2023).

How the values were obtained:
[1] = target: hGYS1 enzyme (recombinant hGYS1/GN1 protein) (Homo sapiens (Human), UniProt P13807); test: GYS1 coupled enzyme assay (PK/LDH); type: biochemical; conditions: hGYS1/GN1 50 nM, UDP-Glucose 0.8 mM, G6P 1 mM; geometric mean of at least 2 runs
[2] = target: hGYS2 enzyme (recombinant hGYS2/GN1 protein) (Homo sapiens (Human), UniProt P54840); test: GYS2 coupled enzyme assay (PK/LDH); type: biochemical; conditions: geometric mean of at least 2 assay runs on separate days, read-out: Avg_IC50
hGYS2 enzyme (recombinant hGYS2/GN1 protein), sequence (P54840 whole entry): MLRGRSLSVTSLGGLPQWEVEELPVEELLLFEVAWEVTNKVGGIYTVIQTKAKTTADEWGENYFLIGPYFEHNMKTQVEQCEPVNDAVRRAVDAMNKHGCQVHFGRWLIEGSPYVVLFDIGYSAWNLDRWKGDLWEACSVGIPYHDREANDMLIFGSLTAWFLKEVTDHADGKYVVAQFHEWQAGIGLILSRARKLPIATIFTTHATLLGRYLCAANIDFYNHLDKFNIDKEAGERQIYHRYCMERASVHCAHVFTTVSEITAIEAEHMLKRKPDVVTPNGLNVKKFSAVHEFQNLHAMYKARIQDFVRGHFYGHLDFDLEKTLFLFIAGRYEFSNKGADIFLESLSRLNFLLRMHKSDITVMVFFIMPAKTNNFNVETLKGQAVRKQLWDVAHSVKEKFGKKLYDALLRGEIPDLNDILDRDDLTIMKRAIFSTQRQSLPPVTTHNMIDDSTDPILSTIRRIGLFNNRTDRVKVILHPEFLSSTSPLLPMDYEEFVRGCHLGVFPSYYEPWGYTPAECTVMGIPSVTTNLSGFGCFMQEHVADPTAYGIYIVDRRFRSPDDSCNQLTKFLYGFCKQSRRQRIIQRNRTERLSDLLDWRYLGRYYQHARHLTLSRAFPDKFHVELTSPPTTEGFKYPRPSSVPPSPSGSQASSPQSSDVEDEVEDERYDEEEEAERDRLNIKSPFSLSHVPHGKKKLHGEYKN
hGYS2 enzyme (recombinant hGYS2/GN1 protein), sequence (P46976 whole entry partner): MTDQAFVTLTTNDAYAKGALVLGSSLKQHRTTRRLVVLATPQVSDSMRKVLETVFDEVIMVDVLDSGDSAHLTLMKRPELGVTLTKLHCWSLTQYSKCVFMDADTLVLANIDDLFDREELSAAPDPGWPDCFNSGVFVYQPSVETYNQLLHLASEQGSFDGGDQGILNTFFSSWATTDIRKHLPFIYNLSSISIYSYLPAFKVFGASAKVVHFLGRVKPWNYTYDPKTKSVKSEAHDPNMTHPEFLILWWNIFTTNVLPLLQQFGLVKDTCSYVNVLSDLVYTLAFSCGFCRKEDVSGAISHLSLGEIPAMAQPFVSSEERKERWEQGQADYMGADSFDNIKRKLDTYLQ
In short: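 Recombinant hGYS2/GN1 (200 nM) with 2 mM UDP-glucose, 0.2% rabbit liver glycogen, 2 mM glucose-6-phosphate; UDP coupled via PK/LDH (2 mM PEP, 0.6 mM NADH). Buffer 50 mM Tris pH 7.5, 2 mM MgCl2, 100 mM KCl, 2.5% DMSO. A340 slope over 10 min; IC50 from Hill fit of duplicates.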

hGYS1 enzyme (recombinant hGYS1/GN1 protein), sequence (P13807 whole entry): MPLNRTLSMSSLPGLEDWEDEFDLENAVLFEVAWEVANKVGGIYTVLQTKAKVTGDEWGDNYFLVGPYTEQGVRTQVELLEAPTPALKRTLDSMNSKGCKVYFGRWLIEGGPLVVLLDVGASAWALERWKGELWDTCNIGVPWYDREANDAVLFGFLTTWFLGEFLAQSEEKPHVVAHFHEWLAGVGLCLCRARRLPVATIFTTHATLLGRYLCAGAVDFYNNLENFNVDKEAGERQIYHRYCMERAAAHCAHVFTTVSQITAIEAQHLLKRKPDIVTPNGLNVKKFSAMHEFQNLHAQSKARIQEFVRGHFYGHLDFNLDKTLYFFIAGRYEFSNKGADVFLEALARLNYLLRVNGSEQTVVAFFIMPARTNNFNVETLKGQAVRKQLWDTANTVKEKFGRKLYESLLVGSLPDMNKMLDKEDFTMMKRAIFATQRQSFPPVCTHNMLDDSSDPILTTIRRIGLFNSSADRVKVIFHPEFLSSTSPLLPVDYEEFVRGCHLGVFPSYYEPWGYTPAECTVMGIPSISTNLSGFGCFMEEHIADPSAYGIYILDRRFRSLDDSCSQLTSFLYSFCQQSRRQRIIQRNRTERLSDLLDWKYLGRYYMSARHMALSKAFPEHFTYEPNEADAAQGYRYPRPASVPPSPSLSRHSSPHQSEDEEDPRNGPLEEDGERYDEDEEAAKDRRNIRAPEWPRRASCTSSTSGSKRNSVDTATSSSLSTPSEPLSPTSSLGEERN
hGYS1 enzyme (recombinant hGYS1/GN1 protein), sequence (P46976 whole entry partner): as the sequence (P46976 whole entry partner) above

SMILES	IC50 [1] [µM]	IC50 [2] [µM]
CC(C)c1ccc([C@@H](NC(=O)[C@@H]2C[C@@H](F)CN2C(=O)CCCc2ccncc2)c2ccccc2)cc1 [Compound 95, (2S,4R)-4-fluoro-N-[(S)-phenyl[4-(propan-2-yl)phenyl]methyl]-1-[4-(pyridin-4-yl)butanoyl]pyrrolidine-2-carboxamide]	0.13	> 100
CC(Cc1ccncc1)C(=O)N1C[C@H](F)C[C@H]1C(=O)N[C@@H](c1ccccc1)c1ccc(C(C)C)cc1 (stereo partly drawn) [Compound 98, (2S,4R)-4-fluoro-1-[2-methyl-3-(pyridin-4-yl)propanoyl]-N-[(S)-phenyl[4-(propan-2-yl)phenyl]methyl]pyrrolidine-2-carboxamide]	0.244	> 100
Cc1cc(CCC(=O)N2C[C@H](F)C[C@H]2C(=O)N[C@@H](c2ccccc2)c2ccc(C(C)C)cc2)ccn1 [Compound 99, (2S,4R)-4-fluoro-1-[3-(2-methylpyridin-4-yl)propanoyl]-N-[(S)-phenyl[4-(propan-2-yl)phenyl]methyl]pyrrolidine-2-carboxamide]	0.065	> 100
Cc1ccc(CCC(=O)N2C[C@H](F)C[C@H]2C(=O)N[C@@H](c2ccccc2)c2ccc(C(C)C)cc2)cn1 [Compound 100, (2S,4R)-4-fluoro-1-[3-(6-methylpyridin-3-yl)propanoyl]-N-[(S)-phenyl[4-(propan-2-yl)phenyl]methyl]pyrrolidine-2-carboxamide]	0.073	> 100
Cc1ncccc1CCC(=O)N1C[C@H](F)C[C@H]1C(=O)N[C@@H](c1ccccc1)c1ccc(C(C)C)cc1 [Compound 102, (2S,4R)-4-fluoro-1-[3-(2-methylpyridin-3-yl)propanoyl]-N-[(S)-phenyl[4-(propan-2-yl)phenyl]methyl]pyrrolidine-2-carboxamide]	0.058	> 100
Cc1noc(C)c1CCC(=O)N1C[C@H](F)C[C@H]1C(=O)N[C@@H](c1ccccc1)c1ccc(C(C)C)cc1 [Compound 103, (2S,4R)-1-[3-(3,5-dimethyl-1,2-oxazol-4-yl)propanoyl]-4-fluoro-N-[(S)-phenyl[4-(propan-2-yl)phenyl]methyl]pyrrolidine-2-carboxamide]	0.162	> 100
CC(C)c1ccc([C@@H](NC(=O)[C@@H]2C[C@@H](F)CN2C(=O)CCc2c[nH]c3ncccc23)c2ccccc2)cc1 [Compound 104, (2S,4R)-4-fluoro-N-[(S)-phenyl[4-(propan-2-yl)phenyl]methyl]-1-(3-{1H-pyrrolo[2,3-b]pyridin-3-yl}propanoyl)pyrrolidine-2-carboxamide]	0.061	> 100
Cc1nccn1CCCC(=O)N1C[C@H](F)C[C@H]1C(=O)N[C@@H](c1ccccc1)c1ccc(C(C)C)cc1 [Compound 105, (2S,4R)-4-fluoro-1-[4-(2-methyl-1H-imidazol-1-yl)butanoyl]-N-[(S)-phenyl[4-(propan-2-yl)phenyl]methyl]pyrrolidine-2-carboxamide]	0.249	> 100
Cc1cc(C)n(CCC(=O)N2C[C@H](F)C[C@H]2C(=O)N[C@@H](c2ccccc2)c2ccc(C(C)C)cc2)n1 [Compound 106, (2S,4R)-1-[3-(3,5-dimethyl-1H-pyrazol-1-yl)propanoyl]-4-fluoro-N-[(S)-phenyl[4-(propan-2-yl)phenyl]methyl]pyrrolidine-2-carboxamide]	0.186	> 100
CC(C)c1ccc([C@@H](NC(=O)[C@@H]2C[C@@H](F)CN2C(=O)CCC(=O)N2CCCC2)c2ccccc2)cc1 [Compound 108, (2S,4R)-4-fluoro-1-[4-oxo-4-(pyrrolidin-1-yl)butanoyl]-N-[(S)-phenyl[4-(propan-2-yl)phenyl]methyl]pyrrolidine-2-carboxamide]	0.077	> 100
CC(C)c1ccc([C@@H](NC(=O)[C@@H]2C[C@@H](F)CN2C(=O)CCc2ccc(=O)[nH]n2)c2ccccc2)cc1 [Compound 114, (2S,4R)-4-fluoro-1-[3-(6-oxo-1,6-dihydropyridazin-3-yl)propanoyl]-N-[(S)-phenyl[4-(propan-2-yl)phenyl]methyl]pyrrolidine-2-carboxamide]	0.208	> 100
CC(C)c1ccc([C@@H](NC(=O)[C@@H]2C[C@@H](F)CN2C(=O)Cc2noc3ccccc23)c2ccccc2)cc1 [Compound 119, (2S,4R)-1-[2-(1,2-benzoxazol-3-yl)acetyl]-4-fluoro-N-[(S)-phenyl[4-(propan-2-yl)phenyl]methyl]pyrrolidine-2-carboxamide]	0.109	> 100

Stronger by IC50 [1], values ahead:

IC50 [1] [µM]	IC50 [2] [µM]	SMILES
0.054	> 100	Cc1ccc(CCC(=O)N2C[C@H](F)C[C@H]2C(=O)N[C@@H](c2ccccc2)c2ccc(C(C)C)cc2)nc1 [Compound 101, (2S,4R)-4-fluoro-1-[3-(5-methylpyridin-2-yl)propanoyl]-N-[(S)-phenyl[4-(propan-2-yl)phenyl]methyl]pyrrolidine-2-carboxamide]
0.049	> 100	CC(C)c1ccc([C@@H](NC(=O)[C@@H]2C[C@@H](F)CN2C(=O)CN2C(=O)CNC2=O)c2ccccc2)cc1 [Compound 117, (2S,4R)-1-[2-(2,5-dioxoimidazolidin-1-yl)acetyl]-4-fluoro-N-[(S)-phenyl[4-(propan-2-yl)phenyl]methyl]pyrrolidine-2-carboxamide]
0.041	> 100	CC(C)c1ccc([C@@H](NC(=O)[C@@H]2C[C@@H](F)CN2C(=O)CCc2c[nH]c3ccccc23)c2ccccc2)cc1 [Compound 109, (2S,4R)-4-fluoro-1-[3-(1H-indol-3-yl)propanoyl]-N-[(S)-phenyl[4-(propan-2-yl)phenyl]methyl]pyrrolidine-2-carboxamide]
0.033	> 100	Cc1ccc(CCC(=O)N2C[C@H](F)C[C@H]2C(=O)N[C@@H](c2ccccc2)c2ccc(C(C)C)cc2)c(C)n1 [Compound 110, (2S,4R)-1-[3-(2,6-dimethylpyridin-3-yl)propanoyl]-4-fluoro-N-[(S)-phenyl[4-(propan-2-yl)phenyl]methyl]pyrrolidine-2-carboxamide]
0.021	> 100	CC(C)c1ccc([C@@H](NC(=O)[C@@H]2C[C@@H](F)CN2C(=O)Cc2ccc3ncccc3c2)c2ccccc2)cc1 [Compound 96, (2S,4R)-4-fluoro-N-[(S)-phenyl[4-(propan-2-yl)phenyl]methyl]-1-[2-(quinolin-6-yl)acetyl]pyrrolidine-2-carboxamide]
0.02	> 100	CC(C)c1ccc([C@@H](NC(=O)[C@@H]2C[C@@H](F)CN2C(=O)Cc2ccc3ncnn3c2)c2ccccc2)cc1 [Compound 118, (2S,4R)-4-fluoro-N-[(S)-phenyl[4-(propan-2-yl)phenyl]methyl]-1-(2-{[1,2,4]triazolo[1,5-a]pyridin-6-yl}acetyl)pyrrolidine-2-carboxamide]
0.019	> 100	CC(=O)Nc1ccc(CC(=O)N2C[C@H](F)C[C@H]2C(=O)N[C@@H](c2ccccc2)c2ccc(C(C)C)cc2)cc1 [Compound 107, (2S,4R)-1-[2-(4-acetamidophenyl)acetyl]-4-fluoro-N-[(S)-phenyl[4-(propan-2-yl)phenyl]methyl]pyrrolidine-2-carboxamide]
0.015	> 100	CC(C)c1ccc([C@@H](NC(=O)[C@@H]2C[C@@H](F)CN2C(=O)Cc2cnc3ccccn23)c2ccccc2)cc1 [Compound 121]
